Measured values as given in ChEMBL document CHEMBL1201862, “PubChem BioAssay data set” (2004).
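Tested at 5 concentrations; 48 h exposure; 96-well plates; endpoints linearly interpolated, else capped at highest concentration. Abbreviation: GI50, concentration required for 50% inhibition of growth.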 Active and inactive are the calls of the source. Cut-off read from the data, not from the text of the source: active = GI50 up to about 1.1 µM and inactive = higher.

Columns and labels:
Test in all cases: NCI-60 cell line screen, 48 h
SW-620 = test system: SW-620
UO-31 = test system: UO-31
OVCAR-8 = test system: OVCAR-8
K562 = test system: K562
NCI-H460 = test system: NCI-H460
SF-295 = test system: SF-295
OVCAR-5 = test system: OVCAR-5
KM12 = test system: KM12
SNB-19 = test system: SNB-19
PC-3 = test system: PC-3
MCF7 = test system: MCF7
SF-268 = test system: SF-268
HL-60 = test system: HL-60
HCT-116 = test system: HCT-116
NCI-H226 = test system: NCI-H226
UACC-62 = test system: UACC-62
U-251 = test system: U-251
OVCAR-3 = test system: OVCAR-3
SR = test system: SR
HCT-15 = test system: HCT-15
NCI-H23 = test system: NCI-H23
IGROV-1 = test system: IGROV-1
DU-145 = test system: DU-145
MDA-N = test system: MDA-N
SK-MEL-28 = test system: SK-MEL-28
OVCAR-4 = test system: OVCAR-4
786-0 = test system: 786-0
MDA-MB-231 = test system: MDA-MB-231
SN12C = test system: SN12C
HCC 2998 = test system: HCC 2998
CAKI-1 = test system: CAKI-1
TK-10 = test system: TK-10
A498 = test system: A498
Malme-3M = test system: Malme-3M
UACC-257 = test system: UACC-257
RPMI-8226 = test system: RPMI-8226
SK-MEL-5 = test system: SK-MEL-5
MDA-MB-435 = test system: MDA-MB-435
NCI/ADR-RES = test system: NCI/ADR-RES
BT-549 = test system: BT-549
SF-539 = test system: SF-539
ACHN = test system: ACHN
HT-29 = test system: HT-29
M14 = test system: M14
HOP-92 = test system: HOP-92
SK-MEL-2 = test system: SK-MEL-2
SNB-75 = test system: SNB-75
NCI-H522 = test system: NCI-H522
A549 = test system: A549
T47D = test system: T47D
COLO 205 = test system: COLO 205
RXF 393 = test system: RXF 393
EKVX = test system: EKVX
HOP-62 = test system: HOP-62
CCRF-CEM = test system: CCRF-CEM
LOX IMVI = test system: LOX IMVI
MOLT-4 = test system: MOLT-4
Hs-578T = test system: Hs-578T
SK-OV-3 = test system: SK-OV-3

SMILES: COc1ccc(NC2Oc3cc4c(cc3C(c3cc(OC)c(O)c(OC)c3)C2C)OCO4)cc1 (stereo unspecified)
- GI50 (SW-620): 3.5 µM (inactive)
- GI50 (UO-31): 5.97 µM (inactive)
- GI50 (OVCAR-8): 4.45 µM (inactive)
- GI50 (K562): 2.69 µM (inactive)
- GI50 (NCI-H460): 3.83 µM (inactive)
- GI50 (SF-295): 4.78 µM (inactive)
- GI50 (OVCAR-5): 7.66 µM (inactive)
- GI50 (KM12): 4.78 µM (inactive)
- GI50 (SNB-19): 21.4 µM (inactive)
- GI50 (PC-3): 4.13 µM (inactive)
- GI50 (MCF7): 5.71 µM (inactive)
- GI50 (SF-268): 14.7 µM (inactive)
- GI50 (HL-60): 1.79 µM (inactive)
- GI50 (HCT-116): 4.43 µM (inactive)
- GI50 (NCI-H226): 38.3 µM (inactive)
- GI50 (UACC-62): 2.74 µM (inactive)
- GI50 (U-251): 4.65 µM (inactive)
- GI50 (OVCAR-3): 5.21 µM (inactive)
- GI50 (SR): 0.202 µM (active)
- GI50 (HCT-15): 1.79 µM
- GI50 (NCI-H23): 11.2 µM (inactive)
- GI50 (IGROV-1): 5.55 µM (inactive)
- GI50 (DU-145): 7.4 µM (inactive)
- GI50 (MDA-N): 1.36 µM (inactive)
- GI50 (SK-MEL-28): 3.73 µM (inactive)
- GI50 (OVCAR-4): 48.2 µM (inactive)
- GI50 (786-0): 3.72 µM (inactive)
- GI50 (MDA-MB-231): 2.65 µM (inactive)
- GI50 (SN12C): 2.76 µM (inactive)
- GI50 (HCC 2998): 5.22 µM (inactive)
- GI50 (CAKI-1): 10.4 µM (inactive)
- GI50 (TK-10): 2.23 µM (inactive)
- GI50 (A498): 6.79 µM (inactive)
- GI50 (Malme-3M): 5.38 µM (inactive)
- GI50 (UACC-257): 15.1 µM (inactive)
- GI50 (RPMI-8226): 3.15 µM (inactive)
- GI50 (SK-MEL-5): 1.96 µM (inactive)
- GI50 (MDA-MB-435): 0.406 µM (active)
- GI50 (NCI/ADR-RES): 5.66 µM (inactive)
- GI50 (BT-549): 10.4 µM (inactive)
- GI50 (SF-539): 4.2 µM (inactive)
- GI50 (ACHN): 4.01 µM (inactive)
- GI50 (HT-29): 3.82 µM (inactive)
- GI50 (M14): 5.36 µM (inactive)
- GI50 (HOP-92): 23.8 µM (inactive)
- GI50 (SK-MEL-2): 2.25 µM (inactive)
- GI50 (SNB-75): 2.11 µM (inactive)
- GI50 (NCI-H522): 3.33 µM (inactive)
- GI50 (A549): 3.56 µM (inactive)
- GI50 (T47D): 9.06 µM (inactive)
- GI50 (COLO 205): 8.87 µM (inactive)
- GI50 (RXF 393): 7.73 µM (inactive)

SMILES: CC(C)[Si]1(C(C)C)OCC2OC(n3ccc(=O)[nH]c3=O)C(O)(CO)C2O[Si](C(C)C)(C(C)C)O1 (stereo unspecified)
- GI50 (EKVX): 14.2 µM (inactive)
- GI50 (SW-620): 17.1 µM (inactive)
- GI50 (UO-31): 10.2 µM (inactive)
- GI50 (OVCAR-8): 15.5 µM (inactive)
- GI50 (K562): 18.4 µM (inactive)
- GI50 (SF-295): 15 µM (inactive)
- GI50 (OVCAR-5): 15.9 µM (inactive)
- GI50 (KM12): 16.5 µM (inactive)
- GI50 (SNB-19): 15.3 µM (inactive)
- GI50 (PC-3): 13 µM (inactive)
- GI50 (MCF7): 15.1 µM (inactive)
- GI50 (SF-268): 13.8 µM (inactive)
- GI50 (HL-60): 14.4 µM (inactive)
- GI50 (HCT-116): 14.3 µM (inactive)
- GI50 (NCI-H226): 21.2 µM (inactive)
- GI50 (UACC-62): 15.8 µM (inactive)
- GI50 (U-251): 15.1 µM (inactive)
- GI50 (OVCAR-3): 15.8 µM (inactive)
- GI50 (SR): 12.9 µM (inactive)
- GI50 (HCT-15): 18.4 µM
- GI50 (HOP-62): 19.4 µM (inactive)
- GI50 (NCI-H23): 3.62 µM (inactive)
- GI50 (IGROV-1): 11.6 µM (inactive)
- GI50 (DU-145): 18.3 µM (inactive)
- GI50 (SK-MEL-28): 19.3 µM (inactive)
- GI50 (OVCAR-4): 13.8 µM (inactive)
- GI50 (786-0): 15.3 µM (inactive)
- GI50 (MDA-MB-231): 13.6 µM (inactive)
- GI50 (SN12C): 15.8 µM (inactive)
- GI50 (CAKI-1): 15.8 µM (inactive)
- GI50 (CCRF-CEM): 12.4 µM (inactive)
- GI50 (TK-10): 17.4 µM (inactive)
- GI50 (A498): 20.7 µM (inactive)
- GI50 (Malme-3M): 15 µM (inactive)
- GI50 (UACC-257): 15.3 µM (inactive)
- GI50 (LOX IMVI): 15.8 µM (inactive)
- GI50 (RPMI-8226): 9.82 µM (inactive)
- GI50 (SK-MEL-5): 15.1 µM (inactive)
- GI50 (MDA-MB-435): 17 µM (inactive)
- GI50 (NCI/ADR-RES): 16 µM (inactive)
- GI50 (BT-549): 16.8 µM (inactive)
- GI50 (MOLT-4): 12.3 µM (inactive)
- GI50 (SF-539): 17.7 µM (inactive)
- GI50 (ACHN): 17.1 µM (inactive)
- GI50 (Hs-578T): 3.31 µM (inactive)
- GI50 (HT-29): 15 µM (inactive)
- GI50 (SK-OV-3): 16.4 µM (inactive)
- GI50 (M14): 19.1 µM (inactive)
- GI50 (HOP-92): 10.5 µM (inactive)
- GI50 (SK-MEL-2): 16.7 µM (inactive)
- GI50 (A549): 14.4 µM (inactive)
- GI50 (T47D): 15.1 µM (inactive)
- GI50 (COLO 205): 17.6 µM (inactive)
- GI50 (RXF 393): 15.6 µM (inactive)
